# Results published in ChEMBL document CHEMBL1201862, “PubChem BioAssay data set” (2004).
#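 The compound was tested at five concentrations on cells cultured in 96-well plates, with a 48-hour exposure period. The concentration for 50% growth inhibition is given as GI50.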 Active and inactive are the calls of the source. No stated cut-off is given here; in the data, active = GI50 up to about 1.1 µM and inactive = higher.
# Experiments:
# Assay in all cases: NCI tumour cell line growth inhibition, 48 h
# [1] = test system: M14
# [2] = test system: SK-MEL-28
# [3] = test system: LOX IMVI
# [4] = test system: NCI/ADR-RES
# [5] = test system: A498
# [6] = test system: CCRF-CEM
# [7] = test system: HOP-62
# [8] = test system: SF-295
# [9] = test system: HT-29
# [10] = test system: SN12C
# [11] = test system: Hs-578T
# [12] = test system: U-251
# [13] = test system: MDA-N
# [14] = test system: SF-268
# [15] = test system: EKVX
# [16] = test system: ACHN
# [17] = test system: CAKI-1
# [18] = test system: HCC 2998
# [19] = test system: NCI-H23
# [20] = test system: OVCAR-5
# [21] = test system: SK-MEL-5
# [22] = test system: OVCAR-3
# [23] = test system: PC-3
# [24] = test system: MDA-MB-231
# [25] = test system: MOLT-4
# [26] = test system: DU-145
# [27] = test system: NCI-H226
# [28] = test system: SW-620
# [29] = test system: A549
# [30] = test system: T47D
# [31] = test system: SR
# [32] = test system: NCI-H460
# [33] = test system: Malme-3M
# [34] = test system: MDA-MB-435
# [35] = test system: SNB-19
# [36] = test system: HCT-15
# [37] = test system: RPMI-8226
# [38] = test system: BT-549
# [39] = test system: HL-60
# [40] = test system: SK-OV-3
# [41] = test system: HCT-116
# [42] = test system: UO-31
# [43] = test system: IGROV-1
# [44] = test system: MCF7
# [45] = test system: TK-10
# [46] = test system: HOP-92
# [47] = test system: OVCAR-8
# [48] = test system: SF-539
# [49] = test system: KM12
# [50] = test system: COLO 205
# [51] = test system: 786-0
# [52] = test system: UACC-257
# [53] = test system: SNB-75
# [54] = test system: RXF 393
# [55] = test system: K562
# [56] = test system: NCI-H522
# [57] = test system: OVCAR-4
# [58] = test system: UACC-62
compound,measurement,setting,value
COc1cccc(/C=C2\S/C(=N/Nc3nc(-c4ccc([N+](=O)[O-])cc4)cs3)NC2=O)c1O,GI50,[1],17 µM (inactive)
same,GI50,[2],20.8 µM (inactive)
same,GI50,[3],3.25 µM (inactive)
same,GI50,[4],17.9 µM (inactive)
same,GI50,[5],23.4 µM (inactive)
same,GI50,[6],9.89 µM (inactive)
same,GI50,[7],15.3 µM (inactive)
same,GI50,[8],16.9 µM (inactive)
same,GI50,[9],21.9 µM (inactive)
same,GI50,[10],22.1 µM (inactive)
same,GI50,[11],12.3 µM (inactive)
same,GI50,[12],1.8 µM (inactive)
same,GI50,[13],22.2 µM (inactive)
same,GI50,[14],5 µM (inactive)
same,GI50,[15],17.4 µM (inactive)
same,GI50,[16],17.3 µM (inactive)
same,GI50,[17],25 µM (inactive)
same,GI50,[18],17.5 µM (inactive)
same,GI50,[19],11.7 µM (inactive)
same,GI50,[20],25.3 µM (inactive)
same,GI50,[21],12.2 µM (inactive)
same,GI50,[22],15 µM (inactive)
same,GI50,[23],16.1 µM (inactive)
same,GI50,[24],18.4 µM (inactive)
same,GI50,[25],22.1 µM (inactive)
same,GI50,[26],21.9 µM (inactive)
same,GI50,[27],14.9 µM (inactive)
same,GI50,[28],19.3 µM (inactive)
same,GI50,[29],15.9 µM (inactive)
same,GI50,[30],4.66 µM (inactive)
same,GI50,[31],12 µM (inactive)
same,GI50,[32],12.6 µM (inactive)
same,GI50,[33],20.5 µM (inactive)
same,GI50,[34],19.5 µM (inactive)
same,GI50,[35],5.19 µM (inactive)
same,GI50,[36],15.6 µM
same,GI50,[37],10.4 µM (inactive)
same,GI50,[38],4.23 µM (inactive)
same,GI50,[39],4.45 µM (inactive)
same,GI50,[40],26.9 µM (inactive)
same,GI50,[41],13.1 µM (inactive)
same,GI50,[42],12.5 µM (inactive)
same,GI50,[43],11.3 µM (inactive)
same,GI50,[44],16.6 µM (inactive)
same,GI50,[45],20.7 µM (inactive)
same,GI50,[46],10.3 µM (inactive)
same,GI50,[47],13.6 µM (inactive)
same,GI50,[48],7.82 µM (inactive)
same,GI50,[49],13.2 µM (inactive)
same,GI50,[50],16.4 µM (inactive)
same,GI50,[51],19.9 µM (inactive)
same,GI50,[52],27.5 µM (inactive)
COC(=O)[C@H]1[C@@H](C(C)C)O[C@@H](C(C)C)O[C@H]1C(F)(F)F,GI50,[1],> 100 µM (inactive)
same,GI50,[2],> 100 µM (inactive)
same,GI50,[53],> 100 µM (inactive)
same,GI50,[54],> 100 µM (inactive)
same,GI50,[3],> 100 µM (inactive)
same,GI50,[4],> 100 µM (inactive)
same,GI50,[5],> 100 µM (inactive)
same,GI50,[6],> 100 µM (inactive)
same,GI50,[7],> 100 µM (inactive)
same,GI50,[8],> 100 µM (inactive)
same,GI50,[9],> 100 µM (inactive)
same,GI50,[10],> 100 µM (inactive)
same,GI50,[11],> 100 µM (inactive)
same,GI50,[12],> 100 µM (inactive)
same,GI50,[13],> 100 µM (inactive)
same,GI50,[14],> 100 µM (inactive)
same,GI50,[15],> 100 µM (inactive)
same,GI50,[16],> 100 µM (inactive)
same,GI50,[17],> 100 µM (inactive)
same,GI50,[18],> 100 µM (inactive)
same,GI50,[19],> 100 µM (inactive)
same,GI50,[20],> 100 µM (inactive)
same,GI50,[21],> 100 µM (inactive)
same,GI50,[22],> 100 µM (inactive)
same,GI50,[23],> 100 µM (inactive)
same,GI50,[55],> 100 µM (inactive)
same,GI50,[24],> 100 µM (inactive)
same,GI50,[25],> 100 µM (inactive)
same,GI50,[26],> 100 µM (inactive)
same,GI50,[27],> 100 µM (inactive)
same,GI50,[28],> 100 µM (inactive)
same,GI50,[29],> 100 µM (inactive)
same,GI50,[30],> 100 µM (inactive)
same,GI50,[31],> 100 µM (inactive)
same,GI50,[32],> 100 µM (inactive)
same,GI50,[33],> 100 µM (inactive)
same,GI50,[34],> 100 µM (inactive)
same,GI50,[35],> 100 µM (inactive)
same,GI50,[56],> 100 µM (inactive)
same,GI50,[36],> 100 µM
same,GI50,[37],> 100 µM (inactive)
same,GI50,[57],> 100 µM (inactive)
same,GI50,[38],> 100 µM (inactive)
same,GI50,[58],> 100 µM (inactive)
same,GI50,[39],> 100 µM (inactive)
same,GI50,[40],> 100 µM (inactive)
same,GI50,[41],> 100 µM (inactive)
same,GI50,[42],> 100 µM (inactive)
same,GI50,[43],37.9 µM (inactive)
same,GI50,[44],> 100 µM (inactive)
same,GI50,[45],> 100 µM (inactive)
same,GI50,[46],44.6 µM (inactive)
same,GI50,[47],> 100 µM (inactive)
same,GI50,[48],> 100 µM (inactive)
same,GI50,[49],> 100 µM (inactive)
same,GI50,[50],> 100 µM (inactive)
same,GI50,[51],> 100 µM (inactive)
same,GI50,[52],> 100 µM (inactive)
